# Patent US12157730B2, “Heteroaryl derivative, method for producing same, and pharmaceutical composition comprising same as effective component” (VORONOI INC., priority 2019, dated 2024)
# Biological target: T1, Ba/F3 cell EGFR Exon20 ins NPH (Homo sapiens, UniProt P00533, INS773NPH)
# T1 construct: expressed in transfected cells; host or cells: Ba/F3
# Experiment: Ba/F3 cell proliferation suppression, EGFR Exon20 ins NPH
# Format: cell-based
# Conditions: GI50 class; Ba/F3 cell line with NPH inserted at Exon20 of EGFR; 72 hours
# Summary of the method: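 Seed 3000–5000 cells/well; after 24 h add compound (12 conc., 0.3 nM–50 um final); incubate 72 h; add CellTiter-Glo, 10 min room temperature; read luminescence; GI50 from % growth vs control, triplicate.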
row,SMILES,Ba/F3 (NPH) Activity
1,"C=CC(=O)Nc1cc(Nc2cc(N3OCC[C@@H]3c3cccc(Cl)c3C)ncn2)c(OC)cc1N1CCC(N2CCN(C3CC3)CC2)CC1 [Example 145, N-(5-((6-((R)-3-(3-chloro-2-methylphenyl)isoxazolidine-2-yl)pyrimidine-4-yl)amino)-2-(4-(4-cyclopropylpiperazine-1-yl)piperidine-1-yl)-4-methoxyphenyl) acrylamide]",A (GI50 < 50 nM)
2,"C=CC(=O)Nc1cc(Nc2cc(N3OCC[C@@H]3c3ccc(F)cc3F)ncn2)c(OC)cc1N1CCC(N2CCN(C3CCOCC3)CC2)CC1 [Example 207, N-(5-((6-((R)-3-(2,4-difluorophenyl)isoxazolidine-2-yl)pyrimidine-4-yl)amino)-4-methoxy-2-(4-(4-(tetrahydro-2H-pyran-4-yl)piperazine-1-yl)piperidine-1-yl)phenyl)acrylamide]",A (GI50 < 50 nM)
3,"C=CC(=O)Nc1cc(Nc2cc(N3OCC[C@@H]3Cc3ccccc3)ncn2)c(OC)cc1N1CCN(C2CC2)CC1 [compound 952, N-(5-((6-((S)-3-benzylisoxazolidine-2-yl)pyrimidine-4-yl)amino)-2-(4-cyclopropylpiperazine-1-yl)-4-methoxyphenyl) acrylamide]",A (GI50 < 50 nM)
4,"C=CC(=O)Nc1cc(Nc2cc(N3OCC[C@@H]3c3cccc(Cl)c3F)ncn2)c(OC)cc1N1CCC(N2CCO[C@H](C)C2)CC1 [compound 357, N-(5-((6-((R)-3-(3-chloro-2-fluorophenyl)isoxazolidine-2-yl)pyrimidine-4-yl)amino)-4-methoxy-2-(4-((R)-2-methylmorpholino)piperidine-1-yl)phenyl) acrylamide]",A (GI50 < 50 nM)
5,"C=CC(=O)Nc1cc(Nc2cc(N3OCC[C@@H]3c3ccc(F)cc3F)ncn2)c(OC)cc1N1CCC(N(C)C)CC1 [compound 384, N-(5-((6-((R)-3-(2,4-difluorophenyl)isoxazolidine-2-yl)pyrimidine-4-yl)amino)-2-(4-(dimethylamino)piperidine-1-yl)-4-methoxyphenyl) acrylamide]",A (GI50 < 50 nM)
6,"C=CC(=O)Nc1cc(Nc2cc(N3OCC[C@@H]3c3cccc(C(F)(F)F)c3)ncn2)c(OC)cc1N1CCC(N2CCN(C)CC2)CC1 [compound 453, N-(4-methoxy-2-(4-(4-methylpiperazine-1-yl)piperidine-1-yl)-5-((6-((R)-3-(3-(trifluoromethyl)phenyl)isoxazolidine-2-yl)pyrimidine-4-yl)amino)phenyl)acrylamide]",A (GI50 < 50 nM)
7,"C=CC(=O)Nc1cc(Nc2cc(N3OCC[C@@H]3c3cccc(Cl)c3)ncn2)c(OC)cc1N1CCN(C)CC1 [compound 360, N-(5-((6-((R)-3-(3-chlorophenyl)isoxazolidine-2-yl)pyrimidine-4-yl)amino)-4-methoxy-2-(4-methylpiperazine-1-yl)phenyl)acrylamide]",A (GI50 < 50 nM)
8,"C=CC(=O)Nc1cc(Nc2cc(N3OCC[C@@H]3c3cccc(F)c3Cl)ncn2)c(OC)cc1N1CCC(N2CCN(C(C)C)CC2)CC1 [compound 661, N-(5-((6-((R)-3-(2-chloro-3-fluorophenyl)isoxazolidine-2-yl)pyrimidine-4-yl)amino)-2-(4-(4-isopropylpiperazine-1-yl)piperidine-1-yl)-4-methoxyphenyl) acrylamide]",A (GI50 < 50 nM)
9,"C=CC(=O)Nc1cc(Nc2cc(N3OCC[C@@H]3c3cccc(Cl)c3Cl)ncn2)c(OC)cc1N1CCN(C2COC2)CC1 [compound 520, N-(5-((6-((R)-3-(2,3-dichlorophenyl)isoxazolidine-2-yl)pyrimidine-4-yl)amino)-4-methoxy-2-(4-(oxetane-3-yl)piperazine-1-yl)phenyl) acrylamide]",A (GI50 < 50 nM)
10,"C=CC(=O)Nc1cc(Nc2cc(N3OCC[C@@H]3c3ccc(F)c(F)c3)ncn2)c(OC)cc1N1CCC(N2CCOCC2)CC1 [compound 503, N-(5-((6-((R)-3-(3,4-difluorophenyl)isoxazolidine-2-yl)pyrimidine-4-yl)amino)-4-methoxy-2-(4-morpholinopiperidine-1-yl)phenyl)acrylamide]",A (GI50 < 50 nM)
11,"C=CC(=O)Nc1cc(Nc2cc(N3OCC[C@@H]3c3c(F)ccc(F)c3Cl)ncn2)c(OC)cc1N1CCC(N2CCN(C3CC3)[C@@H](C)C2)CC1 [compound 934, N-(5-((6-((R)-3-(2-chloro-3,6-difluorophenyl)isoxazolidine-2-yl)pyrimidine-4-yl)amino)-2-(4-((S)-4-cyclopropyl-3-methylpiperazine-1-yl)piperidine-1-yl)-4-methoxyphenyl) acrylamide]",A (GI50 < 50 nM)
12,"C=CC(=O)Nc1cc(Nc2cc(N3OCC[C@@H]3c3ccc(F)c(F)c3)ncn2)c(OC)cc1N1CCC(N(C)C)CC1 [compound 459, N-(5-((6-((R)-3-(3,4-difluorophenyl)isoxazolidine-2-yl)pyrimidine-4-yl)amino)-2-(4-(dimethylamino)piperidine-1-yl)-4-methoxyphenyl) acrylamide]",A (GI50 < 50 nM)
13,"C=CC(=O)Nc1cc(Nc2cc(N3OCC[C@@H]3c3cc(F)cc(F)c3)ncn2)c(OC)cc1N1CCC(N2C[C@@H](C)N(CC)[C@@H](C)C2)CC1 [compound 827, N-(5-((6-((R)-3-(3,5-difluorophenyl)isoxazolidine-2-yl)pyrimidine-4-yl)amino)-2-(4-((3S,5R)-4-ethyl-3,5-dimethylpiperazine-1-yl)piperidine-1-yl)-4-methoxyphenyl) acrylamide]",A (GI50 < 50 nM)
14,"C=CC(=O)Nc1cc(Nc2cc(N3OCC[C@@H]3c3ccc(F)c(F)c3)ncn2)c(OC)cc1N1CCC(N2CCN(C)CC2)CC1 [compound 502, N-(5-((6-((R)-3-(3,4-difluorophenyl)isoxazolidine-2-yl)pyrimidine-4-yl)amino)-4-methoxy-2-(4-(4-methylpiperazine-1-yl)piperidine-1-yl)phenyl) acrylamide]",A (GI50 < 50 nM)
15,"C=CC(=O)Nc1cc(Nc2cc(N3OCC[C@@H]3c3cccc(F)c3F)ncn2)c(OC)cc1N(C)CCN(C)C [compound 924, N-(5-((6-((R)-3-(2,3-difluorophenyl)isoxazolidine-2-yl)pyrimidine-4-yl)amino)-2-((2-(dimethylamino)ethyl)(methyl)amino)-4-methoxyphenyl) acrylamide]",A (GI50 < 50 nM)
16,"C=CC(=O)Nc1cc(Nc2cc(N3OCC[C@@H]3c3cc(F)cc(Cl)c3)ncn2)c(OC)cc1N1CCN(C2COC2)CC1 [compound 597, N-(5-((6-((R)-3-(3-chloro-5-fluorophenyl)isoxazolidine-2-yl)pyrimidine-4-yl)amino)-4-methoxy-2-(4-(oxetane-3-yl)piperazine-1-yl)phenyl) acrylamide]",A (GI50 < 50 nM)
17,"C=CC(=O)Nc1cc(Nc2cc(N3OCC[C@@H]3c3cccc(Cl)c3Cl)ncn2)c(OC)cc1N1CCC(N2CCN(C3CCOCC3)CC2)CC1 [Example 208, N-(5-((6-((R)-3-(2,3-dichlorophenyl)isoxazolidine-2-yl)pyrimidine-4-yl)amino)-4-methoxy-2-(4-(4-(tetrahydro-2H-pyran-4-yl)piperazine-1-yl)piperidine-1-yl)phenyl)acrylamide]",A (GI50 < 50 nM)
